≈ marks a conversion by molar mass, not a printed value.
What was measured:
[1] = target: T1, S. aureus ATCC 29213 FabI (Staphylococcus aureus, UniProt Q6GI75); assay: Staphylococcus aureus FabI enzyme inhibition assay; assay type: biochemical; conditions: NADH consumption, 30 minutes, read-out: FabI (300.235) IC50 (converted)
T1 sequence (Q6GI75 1-256): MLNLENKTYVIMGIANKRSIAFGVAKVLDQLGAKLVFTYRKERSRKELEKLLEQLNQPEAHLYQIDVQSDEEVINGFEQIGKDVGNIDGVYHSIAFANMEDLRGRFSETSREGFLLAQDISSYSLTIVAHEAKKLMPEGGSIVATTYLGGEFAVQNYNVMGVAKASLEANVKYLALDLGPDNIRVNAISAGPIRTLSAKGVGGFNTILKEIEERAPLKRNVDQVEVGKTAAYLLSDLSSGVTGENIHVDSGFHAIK
Experimental: Y.1 FabI Enzyme Inhibition: Staphylococcus aureus FabI Enzyme Inhibition Assay
FabI enzyme inhibition assays were carried out in half-area, 384-well microtitre plates. […] The reaction mixtures were incubated for 30 minutes at room temperature and the reaction was stopped by adding 200 mM Tris buffer (pH 9.0) to create a pH-shift. The consumption of NADH was monitored by measuring the change in absorbance at […]. By comparing sample readings to those of negative (absence of compound) and positive (absence of enzyme) controls, the percent inhibition of enzymatic activity of the compounds was determined A best-fit curve is fitted by a minimum of squares method. From this an IC50-value (expressed in μg/ml), resulting in 50% inhibition of enzymatic activity, was obtained.

Cytotoxicity MTT assay = assay type: cell-based, Human; conditions: human, HelaM cells, read-out: HELAM (222.125) CC50
Experimental: Cytotoxicity of the compounds was evaluated using the MTT assay. Human HelaM cells grown in 96-well plates were exposed to serial dilutions of the tested compounds (final volume of 0.2 ml) and incubated for 72 hours at 37° C. and 5% CO2 Inhibitors are typically varied over the range of 25 to 0.8 μM. The final DMSO concentration in the assay is 0.5%. MTT (3-(4,5-Dimethylthiazol-2-yl)-2,5-diphenyltetrazolium bromide, a tetrazole) was added and reduced to purple formazan only in living cells. Solubilization of the formazan crystals was achieved by adding 100 μl 2-propanol. Cell viability was determined by measuring the absorbance of the reduced formazan, giving a purple color, at 540 nm and 690 nm. The absorbance measured at 690 nm was automatically subtracted from the absorbance at 540 nm, to eliminate the effects of non-specific absorption. The percent cytotoxicity achieved by the compounds was calculated according to standard methods. Cytotoxicity is reported as CC50, the concentration that causes a 50% reduction in cell viability.
The results are depicted in the table(s) below (HELAM).

[2] = system: Staphylococcus aureus ATCC 29213; assay: Antibacterial susceptibility testing, IC90 determination (broth microdilution, resazurin); assay type: cell-based; conditions: Staphylococcus aureus, ATCC29213, S. aureus ATCC 29213; 90% inhibitory concentration for bacterial growth; read-out: STA (361.159) IC90
Experimental: Y.2 In Vitro Method for Testing Compounds for Antibacterial Activity Against Various Bacterial Strains
Preparation of Bacterial Suspensions for Susceptibility Testing
The following bacteria were used: Staphylococcus aureus ATCC 29213, methicillin-resistant Staphylococcus aureus (MRSA) ATCC 700788 and Escherichia coli ATCC 35218. The bacteria used in this study were grown overnight in flasks containing 100 ml Mueller-Hinton broth (Difco cat. nr. 0757-17) in sterile de-ionized water, with shaking, at 37° C. Stocks were store at −70° C. until use.
Bacteria were incubated on a tryptic soy agar plate containing 5% sheep blood (Becton Dickinson cat. nr. 254053) for 18-24 hours at 35° C. in aerobic conditions (first passage). For the second passage, fresh Mueller-Hinton broth is inoculated with 5-10 colonies and grown overnight at 35° C. until turbidity (reaching log-phase) in aerobic conditions is reached. The bacterial suspension is then adjusted to 0.5 McFarland density and further diluted 1:100 in Mueller Hinton broth medium. This is used as inoculum.
The result(s) are depicted the table below (for STA ATCC 29213).
Antibacterial Susceptibility Testing: IC90 Determination
(§1) MIC assays were performed by the broth microdilution method in a 96-well format (flat-bottom microtitre plates) with a final volume of 0.1 ml Mueller Hinton broth containing two-fold serial dilutions of compounds and inoculated with 5×10^5 CFU/ml of bacteria (standard inoculum size according to CLSI guidelines). Inhibitors are typically varied over the range of 63 to 0.49 μM. The final DMSO concentration in the assay was 1.25% (maximum tolerable DMSO concentration=6%). In the assays where the effect of human serum on the activity of the compounds against S. aureus was tested, human serum was added at a final concentration of 10%. The plates were incubated at 35° C. for 16-20 hours. At the end of incubation the bacterial growth was quantified fluorometrically. For this, resazurin was added to all wells and the plates were re-incubated. The incubation time is dependent on the type of bacteria. A change in color from blue to pink indicated the growth of bacteria. The fluorescence was read in computer-controlled fluorometer (Fluoroskan Ascent FL, Labsystems) at an excitation wavelength 540 nm and an emission wavelength of 590 nm. The % growth inhibition achieved by the compounds was calculated according to standard methods. The IC90 (expressed in μg/ml) was defined as the 90% inhibitory concentration for bacterial growth. A panel of reference compounds were simultaneously tested for QC approval.

S. aureus = assay: Antibacterial susceptibility testing, IC90 determination with 10% human serum; assay type: cell-based, Staphylococcus aureus; conditions: Staphylococcus aureus, S. aureus with human serum at final concentration of 10%; read-out: STA + 10% HS (361.169) IC90
Experimental: as §1, with “Antibacterial Susceptibility Testing: IC90 Determination MIC” for “MIC”, “approval. The results are depicted in the table(s) below (STA+10% HS).” for “approval.”

Row | IC50 [1] [nM] | IC90 [2] [µg/mL] | melting point [°C] | IC90 (S. aureus) [µg/mL] | Structure (SMILES) | CC50 at 72 h (Cytotoxicity MTT assay) [µg/mL]
1 | 1250 | 0.32 (≈ 0.783 µM) | 125 to 126 | 0.26 | CN1CC(=O)Nc2ncc(/C=C/C(=O)N3CCC=C(c4cccs4)CC3)cc2C1 [compound 33] | > 10.3
2 | 1190 | 0.44 (≈ 1.06 µM) | 156 | 1.43 | O=C(Nc1ccc(/C=C/C(=O)N2CCC=C(c3ccccc3)CC2)cn1)c1ccoc1 [compound 2] | > 10.4
3 | 1110 | 0.67 (≈ 1.45 µM) | 224 | 1.6 | O=C1Nc2ncc(/C=C/C(=O)N3CC=C(c4ccccc4)CCC3)cc2CN2CCSCC12 (stereo not shown) [compound 51] | 5.35 (≈ 11.6 µM)
4 | 686 | 0.48 (≈ 1.03 µM) |  | 0.66 | CS(=O)(=O)N1CC(=O)Nc2ncc(/C=C/C(=O)N3CCC=C(c4ccccc4)CC3)cc2C1 [compound 37] | 2.04 (≈ 4.37 µM)
5 | 783 | 0.25 (≈ 0.515 µM) | 208 | 0.44 | CC(=O)N1CCN2Cc3cc(/C=C/C(=O)N4CCC=C(c5ccccc5)CC4)cnc3NC(=O)C2C1 (stereo not shown) [compound 47] | 17.6 (≈ 36.3 µM)
6 | 901 | 0.37 (≈ 0.952 µM) | 203.18 | 0.38 | O=C1CNCc2cc(/C=C/C(=O)N3CCC=C(c4ccccc4)CC3)cnc2N1 [compound 34] | > 9.76
7 | ~1510 | 0.77 (≈ 1.66 µM) |  | 3.33 | O=C1CN(c2ccccc2)Cc2cc(/C=C/C(=O)N3CCC=C(c4ccccc4)CC3)cnc2N1 [compound 42] | 11.7 (≈ 25.1 µM)
8 | 3010 | 13.3 (≈ 41.7 µM) |  | > 20.1 | Nc1ccc(/C=C/C(=O)N2CCC=C(c3ccccc3)CC2)cn1 [compound 23] | 5.3 (≈ 16.6 µM)
9 |  |  | 224 |  | O=C1Nc2ncc(/C=C/C(=O)N3CCC=C(c4ccccc4)CC3)cc2CN2CCSCC12 (stereo not shown) [Compound K1] | 
10 | 743 | 0.51 (≈ 1.18 µM) |  | 0.75 | CC(=O)N1CC(=O)Nc2ncc(/C=C/C(=O)N3CCC=C(c4ccccc4)CC3)cc2C1 [compound 39] | > 10.8
11 | 1390 | > 25.5 |  | > 25.5 | CC(C)CC(=O)Nc1ccc(/C=C/C(=O)N2CCC=C(c3ccccc3)CC2)cn1 [compound 26] | 3.77 (≈ 9.34 µM)
12 | 5260 | 21 (≈ 58.2 µM) |  | > 22.8 | CC(C)Nc1ccc(/C=C/C(=O)N2CCC=C(c3ccccc3)CC2)cn1 [compound 24] | > 9.08

The next lines start with the compound.

Row | Structure (SMILES) | IC50 [1] [nM] | IC90 [2] [µg/mL] | melting point [°C] | IC90 (S. aureus) [µg/mL] | CC50 at 72 h (Cytotoxicity MTT assay) [µg/mL]
13 | O=C(Nc1ccc(/C=C/C(=O)N2CCC=C(c3ccccc3)CC2)cn1)C1CCCO1 (stereo not shown) [compound 30] | ~1760 | 27.7 (≈ 66.3 µM) |  | 33.3 | 11 (≈ 26.4 µM)
14 | Nc1ccc(/C=C/C(=O)N2CC=C(c3ccccc3)CCC2)cn1 [compound 21] | 3880 | 6.75 (≈ 21.1 µM) | 184 | 12.9 | 4.78 (≈ 15 µM)
15 | O=C(Nc1ccc(/C=C/C(=O)N2CCC=C(c3ccccc3)CC2)cn1)C1CCCCC1 [compound 29] | 3100 | > 27.1 |  | > 27.1 | 3.15 (≈ 7.33 µM)
16 | CN1CC(=O)Nc2ncc(/C=C/C(=O)N3CC=C(c4cccs4)CCC3)cc2C1 [compound 43] | 2620 | 1.13 (≈ 2.77 µM) | 212 to 213 | 1.32 | > 10.3
17 | O=C1Nc2ncc(/C=C/C(=O)N3CCC=C(c4ccccc4)CC3)cc2CN2CCOCC12 (stereo not shown) [compound 46] | 562 | < 0.22 | 227.76 | 0.53 | > 11.2
18 | COc1ccc(F)cc1C1=CCCN(C(=O)/C=C/c2ccc(NC(=O)c3cccnc3)nc2)CC1 [compound 3] | 1630 | 0.45 (≈ 0.952 µM) | 122 | 1.68 | 1.13 (≈ 2.39 µM)
19 | Cn1cc(C(=O)Nc2ccc(/C=C/C(=O)N3CCC=C(c4ccccc4)CC3)cn2)cn1 [compound 4] | 1400 | 0.63 (≈ 1.47 µM) |  | 1.66 | 3.94 (≈ 9.22 µM)
20 | COc1ccc(F)cc1C1=CCCN(C(=O)/C=C/c2cnc3c(c2)CN2CCN(C(C)=O)CC2C(=O)N3)CC1 (stereo not shown) [compound 48] | 1110 | < 0.26 |  | 0.46 | > 13.4
21 | O=C(Nc1ccc(/C=C/C(=O)N2CCC=C(c3ccccc3)CC2)cn1)c1ccccn1 [compound 27] | 2100 | > 26.8 |  | > 26.8 | 3.83 (≈ 9.02 µM)
22 | O=C(Nc1ccc(/C=C/C(=O)N2CCC=C(c3ccccc3)CC2)cn1)c1cnccn1 [compound 28] | 1200 | > 26.8 |  | 26.2 | > 10.7
23 | CC1(C(=O)Nc2ccc(/C=C/C(=O)N3CCC=C(c4ccccc4)CC3)cn2)CC1 [compound 15] | ~1070 | 2.84 (≈ 7.07 µM) |  | 11.8 | 6.59 (≈ 16.4 µM)
24 | O=CNc1ccc(/C=C/C(=O)N2CCC=C(c3ccccc3)CC2)cn1 [compound 7] | 662 | 0.78 (≈ 2.25 µM) |  | 1.25 | 7.18 (≈ 20.7 µM)
25 | CC(C)(C)C(=O)Nc1ccc(/C=C/C(=O)N2CCC=C(c3ccccc3)CC2)cn1 [compound 25] | 2030 | > 25.5 |  | > 25.5 | 6.32 (≈ 15.7 µM)

— patent US9296760B2, “Antibacterial compounds” (JANSSEN SCIENCES IRELAND UC, priority 2012, dated 2016)
